≈ marks a conversion by molar mass, not a printed value. Structures can show the parent of a compound that is named as a salt.
Legend:
[1] = test system: Aurora (Histone H3 phosphorylation); assay: Western blotting assay of downstream substrate phosphorylation; assay type: cell-based; details: western blot; concentration of inhibition
[2] = Gravimetric vapour sorption (GVS); assay type: physicochemical; details: for hygroscopic behaviour (GVS isotherm): 0 to 95% RH, 25° C.
Method: E. Gravimetric Vapour Sorption (GVS):
The sample size was ca. 10-25 mg. […] The sample was loaded and unloaded at room humidity and temperature (ca. 40% RH, 25° C.) and analysed afterwards by XRPD (using a Bruker AXS C2 GADDS system).

[3] = test system: OVCAR-3 tumour cells; details: concentrations of 50 and 100 microM; PKB amplified; cited from earlier work
[4] = test system: primary human mammary epithelial cells; assay: In vitro studies with normal cells; details: 24 h compound treatment, cf. tumor cells
[5] = test system: human tumour derived cell lines engrafted sub-cutaneously; details: nude mice, sub-cutaneous human tumour xenografts
[6] = citrate buffer, pH 4.5, aqueous buffer

O=C(Nc1c[nH]nc1-c1nc2cc(CN3CCOCC3)ccc2[nH]1)NC1CC1
Inhibition of Histone H3 phosphorylation (Aurora) [1]: 10 to 30 nM

O=C(Nc1c[nH]nc1-c1nc2cc(CN3CCOCC3)ccc2[nH]1)NC1CC1 [L-lactate salt]
hygroscopic behaviour (GVS isotherm) [2]: does not display hygroscopic behaviour

O=S(=O)(NCCNCC=C(c1ccccc1)c1ccccc1)c1cccc2cnccc12 [NL-71-101]
apoptosis induction [3]: induced apoptosis

O=C(Nc1c[nH]nc1-c1nc2cc(CN3CCOCC3)ccc2[nH]1)NC1CC1 [compound of formula (I)]
effect on normal checkpoint competent cells [4]: reversible G2/M arrest | anti-tumour action as a single agent [5]: anti-tumour action

O=C(Nc1c[nH]nc1-c1nc2cc(CN3CCOCC3)ccc2[nH]1)NC1CC1 [free base]
hygroscopic behaviour (GVS isotherm) ([2]; listed as Free Base): hygroscopic | sample weight difference between 0% R.H and 95% R.H. ([2]; GVS): approximately 9% | solubility [6]: ~80 mg/mL (≈ 210 mM)

Reference: patent US8435970B2 (priority 2006, dated 2013)
